Entries after “also recorded” stand apart in the source; their conditions may differ.
Experiments:
PBMCs = format: cell-based, human
Protocol: For the T reg assays, PBMCs were thawed according standard procedure, labeled with carboxyfluorescein succinimidyl ester (CFSE), and rested overnight in 96 well culture plate prior to use in in vitro assays. To evaluate the dose response of FV621 on the viability, cells were incubated with FV621 for 2, 3, 5 and 7 days in culture and live cells evaluated by flow cytometry using a live-dead viability dye and by counting in a cellometer (Nexcelom) using trypan blue exclusion. […]
To rule out the possibility that the effect of FV621 was related to toxic effects of the peptide, which might simulate a suppressive effect in vitro, we evaluated the viability of cells in culture with FV621 using two different methods. Cells were cultured in the presence of FV621 in a 96 well plate for 2, 3, 5 and 7 days after which cells were collected and stained with live-dead viability dye and analyzed by flow cytometry (data not shown) and by trypan blue exclusion and counting with a cellometer (Nexcelom). The absolute number of live cells that was counted at days 2, 3, 5 and 7 after stimulation with different doses of FV621 Tregitope was similar by flow cytometry.

[1] = system: panel of five common Class II HLA alleles: HLA-DRB1*0101, HLA-DRB1*0301, HLA-DRB1*0701, HLA-DRB1*1101, and HLA-DRB1*1501; assay: Soluble HLA competition binding assay, panel of five alleles; set-up: species or system human
Protocol: HLA Binding Assay. Binding activity was analyzed atEpiVax (Providence, R.I.). The binding assay used (Steere A C et al., (2006), J Exp Med, 2003(4):961-71) yielded an indirect measure of peptide-MHC affinity. Soluble HLA molecules were loaded onto a 96-well plate with the unlabeled experimental Tregitopes and labeled control peptide. Once the binding mixture reached steady equilibrium (at 24 hours), the HLA-Tregitope complexes were captured on an ELISA plate coated with anti-human DR antibody and detected with a Europium-linked probe for the label (PerkinElmer, Waltham, Mass.). Time-resolved fluorescence measuring bound labeled control peptide is assessed by a SpectraMax® M5 unit (Spectramax, Radnor, Pa.). Binding of experimental Tregitopes was expressed as the percent inhibition of the labeled control peptide (experimental fluorescence/control fluorescence multiplied by 100). […]
CD4+ effector memory T cells contained within PBMC cell populations can be induced to proliferate in response to stimulation with known T cell epitopes. […] Binding of experimental Tregitopes is expressed as the percent inhibition of the labeled control peptide (experimental fluorescence/control fluorescence multiplied by 100). […]

[2] = system: CD4+ T cells in PBMCs from healthy donors; assay: Tetanus Toxoid Bystander Suppression Assay (TTBSA); format: cell-based, human; details: for inhibition of the CD4+ T memory response / T effector proliferation in the TTBSA: PBMC from three HLA-diverse donors
[3] = system: HLA-DRB1*0101, *0301, *0401, *0701, *1101, *1301 and *1501 alleles; assay: In vitro HLA DRB1 binding assay, panel of seven alleles; set-up: species or system human; details: for breadth of binding to HLA DRB1 alleles: seven alleles
Protocol: The six FV peptides were tested for in vitro binding to HLA-DRB1*0101, *0301, *0401, *0701, *1101, *1301 and *1501 alleles.

[4] = system: CD4+ effector memory T cells; assay: Suppression of Tetanus Toxoid stimulated CD4+ effector T cells in PBMC; format: cell-based, human; set-up: CD4+ T cell activation reduced by: dose or concentration left out as unconfirmed
Protocol: Previously harvested and frozen PBMC were thawed and suspended in conditioned chRPMI (3.3×10^6 cells/mL) by conventional means. Cells were stained with CFSE (Cat #: 65-0850-84, Affymetrix, Santa Clara, Calif.) and plated at 300,000 cells per well. Plates were incubated overnight (37° C. in 5% CO2). […] Previous titration experiments performed at EpiVax (EpiVax, Providence, R.I.) have established that stimulation with 0.5 μg/ml Tetanus Toxoid (TT) (Astarte Biologics, Bothell, Wash.) elicits a measurable CD4+ effector memory T cells response in PBMC drawn from healthy control donors (Rhode Island Blood Center, Providence, R.I.). Tetanus Toxoid stock (100 μg/mL) (Astarte Biologics, Bothell, Wash.) was diluted in conditioned chRPMI yielding a working concentration of 1 ug/mL. […] All plates were then incubated for six additional days. On assay day five, 100 μL of supernatant was removed from each well and replaced with freshly conditioned chRPMI.
On assay day seven, cells were removed from incubation. Cells were labeled for live/dead discrimination, for surface markers CD127, CCR7, CD4, CD45RA, and CD25 and for intracellular FoxP3. Stained cells were further prepared for FACS analysis by conventional means. Cells were first gated to eliminate aggregates and dead cells. Live cells were gated for CD4 T cells and all subsequent analysis was done on this population. The activated Teffector population was identified as the CD4+/CD25-high/FoxP3-intermediate (CD4+/CD25^1/FoxP3int) (FIG. 8A).
Proliferation of CD4+/CD25-high (CD4^+/CD25^hi) T cells was estimated from the dilution of the CFSE stain (Cat #: 65-0850-84, Affymetrix, Santa Clara, Calif.) and % proliferation determined by the CFSE-low (CFSEL^lo) population (FIG. 8B).

For `CC[C@H](C)[C@H](NC(C)=O)C(=O)N[C@@H](CC(C)C)C(=O)N[C@H](C(=O)N[C@H](C(=O)N[C@@H](Cc1c[nH]cn1)C(=O)N[C@@H](Cc1ccccc1)C(=O)N[C@H](C(=O)NCC(=O)N[C@@H](Cc1c[nH]cn1)C(=O)N[C@@H](CO)C(=O)N[C@@H](Cc1ccccc1)C(=O)N[C@H](C(=O)N[C@@H](Cc1ccc(O)cc1)C(=O)NCC(=O)N[C@@H](CCCCN)C(N)=O)[C@@H](C)CC)[C@@H](C)O)[C@@H](C)CC)[C@@H](C)O` [SEQ ID NO: 1], the “absolute number of live cells by flow cytometry” value (PBMCs; days 2, 3, 5 and 7, different doses) was “similar” and the “decreased viability by trypan blue exclusion” value (PBMCs; highest dose) was 10-15%.
In the case of `CC(=O)N[C@@H](Cc1ccccc1)C(=O)N[C@@H](C)C(=O)N[C@H](C(=O)N[C@@H](Cc1ccccc1)C(=O)N[C@@H](CC(=O)O)C(=O)N[C@@H](CCC(=O)O)C(=O)N[C@@H](CC(N)=O)C(=O)N[C@@H](CCCCN)C(=O)N[C@@H](CO)C(=O)N[C@@H](Cc1c[nH]c2ccccc12)C(=O)N[C@@H](Cc1ccc(O)cc1)C(=O)N[C@@H](CC(C)C)C(=O)N[C@@H](CCC(=O)O)C(=O)N[C@@H](CC(=O)O)C(=O)N[C@@H](CC(N)=O)C(N)=O)C(C)C` [SEQ ID NO: 4], the HLA binding profile [1] is reported as “highly-restricted HLA binding profiles”, the “inhibition of the CD4+ T memory response / T effector proliferation in the TTBSA” value [2] is reported as “did not inhibit” and the “breadth of binding to HLA DRB1 alleles” value ([3]; listed as FV548) is reported as “somewhat more restricted in the breadth of binding; also recorded: more limited binding to HLA DR”.
`CC[C@H](C)[C@H](NC(=O)[C@H](CC(N)=O)NC(=O)[C@H](CO)NC(=O)[C@H](CCC(=O)O)NC(C)=O)C(=O)N[C@@H](CCSC)C(=O)N[C@@H](CO)C(=O)N[C@H](C(=O)N[C@H](C(=O)N[C@@H](CC(N)=O)C(=O)NCC(=O)N[C@@H](Cc1ccc(O)cc1)C(=O)N[C@H](C(=O)N1CCC[C@H]1C(=O)N[C@@H](CCC(=O)O)C(=O)N[C@@H](CO)C(N)=O)C(C)C)[C@@H](C)CC)[C@@H](C)O` [SEQ ID NO: 5] was tested, and the “inhibition of the CD4+ T memory response / T effector proliferation in the TTBSA” value [2] was “did not inhibit” and the “breadth of binding to HLA DRB1 alleles” value ([3]; listed as FV582) was “somewhat more restricted in the breadth of binding; also recorded: more limited binding to HLA DR”.
For `CC[C@H](C)[C@H](NC(=O)[C@H](CC(C)C)NC(=O)[C@H](CC(C)C)NC(=O)[C@@H]1CCCN1C(=O)CNC(=O)[C@@H](NC(=O)[C@H](CC(C)C)NC(=O)CNC(=O)[C@H](CO)NC(=O)[C@H](Cc1c[nH]cn1)NC(=O)[C@@H](NC(=O)[C@H](CC(=O)O)NC(=O)[C@H](CCCCN)NC(=O)[C@H](CCC(=O)O)NC(C)=O)[C@@H](C)CC)[C@@H](C)CC)C(N)=O` [SEQ ID NO: 6], the HLA binding profile [1] was “highly-restricted HLA binding profiles”, the “inhibition of the CD4+ T memory response / T effector proliferation in the TTBSA” value [2] was “did not inhibit” and the “breadth of binding to HLA DRB1 alleles” value ([3]; listed as FV1737) was “somewhat more restricted in the breadth of binding; also recorded: more limited binding to HLA DR”.
In the case of `CC[C@H](C)[C@H](NC(=O)[C@H](C)NC(=O)[C@H](Cc1c[nH]cn1)NC(=O)[C@H](Cc1ccccc1)NC(=O)[C@H](CCC(=O)O)NC(=O)[C@H](Cc1c[nH]cn1)NC(=O)[C@H](CO)NC(C)=O)C(=O)N[C@@H](CC(N)=O)C(=O)NCC(=O)N[C@@H](CCSC)C(=O)N[C@H](C(=O)N[C@@H](Cc1ccc(O)cc1)C(=O)N[C@@H](CO)C(=O)N[C@@H](CC(C)C)C(=O)N1CCC[C@H]1C(N)=O)[C@@H](C)CC` [SEQ ID NO: 7], the “inhibition of the CD4+ T memory response / T effector proliferation in the TTBSA” value [2] is reported as “did not inhibit” and the “breadth of binding to HLA DRB1 alleles” value [3] is reported as “bind to multiple HLA DRB1 alleles”.
“G628H: FV621 with point mutation at TCR facing position G628H (glycine changed to histidine) (ILTIHFTHHSFIYGK)” was tested, and the “suppressive capacity on TT-induced memory CD4 T cell proliferation relative to FV621” value ([2]; point-mutated FV621 peptides, data not shown) was “significantly diminished suppressive capacity” and the “binding affinity to HLA DR alleles (in words)” value ([3]; across the alleles tested) was “identical to FV621”.
“IHSIHFSGHVFTVRK (listed as Homo sapiens) [SEQ ID NO: 2]” was tested, and the “proliferation of CD4+ T cells and activated T effector T cells” value ([4]; 5, 10, 15, and 20 ug/ml, two donors) was “suppressed proliferation of CD4+ T cells and activated T effector T cells in a dose dependent manner”, the “CD4+ T cell activation reduced by” value ([4]; Donor 096, with TT) was 70% and the “CD4+ T cell activation reduced by” value ([4]; Donor 120, with TT) was 50%.
